Test results: patent publication US20240132484A1, “BROAD SPECTRUM ANTIVIRAL COMPOUNDS TARGETING THE SKI COMPLEX” (priority 2020, published 2024)
Where “and” joins values, the source holds several entries; their conditions need not be identical. Identical values can stand only once. Like-named read-outs stand apart in the source and are kept apart here.

Key:
cells (nuclei count) = conditions: for Relative cell count to DMSO controls, Average 1 μM / Relative cell count to DMSO controls, Average 5 μM / Relative cell count to DMSO controls, Average 10 μM / Relative cell count to DMSO controls, Average 25 μM / Relative cell count to DMSO controls, Average 50 μM: toxicity data, 100=DMSO control; for Relative cell count to DMSO controls, Average (for correlation analysis): average value over the 5 tested concentrations (1 to 50 uM)
SARS2 = type: cell-based, SARS-CoV-2; conditions: for Percentage Inhibition Average 1 μM / Screening data (Relative infection to DMSO controls) Average 1 μM: SARS2, 1 μM; for Screening data (Relative infection to DMSO controls) Average 1 μM / Screening data (Relative infection to DMSO controls) Average 5 μM / Screening data (Relative infection to DMSO controls) Average 10 μM / Screening data (Relative infection to DMSO controls) Average 25 μM / Screening data (Relative infection to DMSO controls) Average 50 μM / Average (relative infection to DMSO over the 5 tested concentrations): 100=DMSO control; for Percentage Inhibition Average 5 μM / Screening data (Relative infection to DMSO controls) Average 5 μM: SARS2, 5 μM; for Percentage Inhibition Average 10 μM / Screening data (Relative infection to DMSO controls) Average 10 μM: SARS2, 10 μM; for Percentage Inhibition Average 25 μM / Screening data (Relative infection to DMSO controls) Average 25 μM: SARS2, 25 μM; for Percentage Inhibition Average 50 μM / Screening data (Relative infection to DMSO controls) Average 50 μM: SARS2, 50 μM; for Average (relative infection to DMSO over the 5 tested concentrations): SARS2, average over 1 to 50 uM
[1] = average of Exp 1-3 (SMW475, SMW477, SMW478), n 9, 1 uM
[2] = average of Exp 1-3 (SMW475, SMW477, SMW478), n 9, 5 uM
[3] = average of Exp 1-3 (SMW475, SMW477, SMW478), n 9, 10 uM
[4] = average of Exp 1-3 (SMW475, SMW477, SMW478), n 9, 25 uM
[5] = average of Exp 1-3 (SMW475, SMW477, SMW478), n 9, 50 uM

CCN(CC)CCN(Cc1ccc(C)o1)Cc1cccs1 [SILCS24]
Relative cell count to DMSO controls, Average 1 μM (cells (nuclei count)): 133.02
Relative cell count to DMSO controls, Average 5 μM (cells (nuclei count)): 124
Relative cell count to DMSO controls, Average 10 μM (cells (nuclei count)): 120.3
Relative cell count to DMSO controls, Average 25 μM (cells (nuclei count)): 96.21
Relative cell count to DMSO controls, Average 50 μM (cells (nuclei count)): 76.48
Toxicity Data, Average, Mean (cells (nuclei count); Average of Exp 1-3, n 9, 1 uM): 133.02%
Toxicity Data, Average, Mean (cells (nuclei count); Average of Exp 1-3, n 9, 5 uM): 124.00%
Toxicity Data, Average, Mean (cells (nuclei count); Average of Exp 1-3, n 9, 10 uM): 120.30%
Toxicity Data, Average, Mean (cells (nuclei count); Average of Exp 1-3, n 9, 25 uM): 96.21%
Toxicity Data, Average, Mean (cells (nuclei count); Average of Exp 1-3, n 9, 50 uM): 76.48%
Relative cell count to DMSO controls, Average (for correlation analysis) (cells (nuclei count)): 110.00
Infection Data, Average, Mean (SARS2; Average of Exp 1-3, n 9, 1 uM): 68.53%
Infection Data, Average, Mean (SARS2; Average of Exp 1-3, n 9, 5 uM): 71.54%
Infection Data, Average, Mean (SARS2; Average of Exp 1-3, n 9, 10 uM): 70.96%
Infection Data, Average, Mean (SARS2; Average of Exp 1-3, n 9, 25 uM): 35.04%
Infection Data, Average, Mean (SARS2; Average of Exp 1-3, n 9, 50 uM): 19.26%
Percentage Infection Relative to Appropriate DMSO Control with Avg Background Subtraction (SARS2; Exp 1 (SMW475), 1 uM, single well): 124.65% and 102.70% and 66.42%
Percentage Infection Relative to Appropriate DMSO Control with Avg Background Subtraction (SARS2; Exp 1 (SMW475), 5 uM, single well): 90.16% and 99.17% and 50.26%
Percentage Infection Relative to Appropriate DMSO Control with Avg Background Subtraction (SARS2; Exp 1 (SMW475), 10 uM, single well): 93.85% and 91.06% and 50.31%
Percentage Infection Relative to Appropriate DMSO Control with Avg Background Subtraction (SARS2; Exp 1 (SMW475), 50 uM, single well): 20.92% and 16.99% and 16.36%
Percentage Infection Relative to Appropriate DMSO Control with Avg Background Subtraction (SARS2; Exp 2 (SMW477), 1 uM, single well): 88.56% and 86.90% and 93.54%
Percentage Infection Relative to Appropriate DMSO Control with Avg Background Subtraction (SARS2; Exp 2 (SMW477), 5 uM, single well): 78.38% and 98.62% and 72.17%
Percentage Infection Relative to Appropriate DMSO Control with Avg Background Subtraction (SARS2; Exp 2 (SMW477), 10 uM, single well): 54.07% and 57.64% and 38.68%
Percentage Infection Relative to Appropriate DMSO Control with Avg Background Subtraction (SARS2; Exp 2 (SMW477), 50 uM, single well): 18.59% and 11.16% and 9.24%
Percentage Infection Relative to Appropriate DMSO Control with Avg Background Subtraction (SARS2; Exp 3 (SMW478), 10 uM, single well): 97.16% and 81.93% and 73.95%
Percentage Inhibition Average 1 μM (SARS2): 31.47%
Screening data (Relative infection to DMSO controls) Average 1 μM (SARS2): 68.53
Percentage Inhibition Average 5 μM (SARS2): 28.46%
Screening data (Relative infection to DMSO controls) Average 5 μM (SARS2): 71.54
Percentage Inhibition Average 10 μM (SARS2): 29.04%
Screening data (Relative infection to DMSO controls) Average 10 μM (SARS2): 70.96
Percentage Inhibition Average 25 μM (SARS2): 64.96%
Screening data (Relative infection to DMSO controls) Average 25 μM (SARS2): 35.04
Percentage Inhibition Average 50 μM (SARS2): 80.74%
Screening data (Relative infection to DMSO controls) Average 50 μM (SARS2): 19.26
Average (relative infection to DMSO over the 5 tested concentrations) (SARS2): 53.07

CCN(CC)CCN(Cc1ccccc1)Cc1ccccn1 [SILCS33]
Relative cell count to DMSO controls, Average 1 μM (cells (nuclei count)): 118.72
Relative cell count to DMSO controls, Average 5 μM (cells (nuclei count)): 94.18
Relative cell count to DMSO controls, Average 10 μM (cells (nuclei count)): 80.17
Relative cell count to DMSO controls, Average 25 μM (cells (nuclei count)): 85.8
Relative cell count to DMSO controls, Average 50 μM (cells (nuclei count)): 59.2
Toxicity Data, Average, Mean (cells (nuclei count); [1]): 118.72%
Toxicity Data, Average, Mean (cells (nuclei count); [2]): 94.18%
Toxicity Data, Average, Mean (cells (nuclei count); [3]): 80.17%
Toxicity Data, Average, Mean (cells (nuclei count); [4]): 85.80%
Toxicity Data, Average, Mean (cells (nuclei count); [5]): 59.20%
Relative cell count to DMSO controls, Average (for correlation analysis) (cells (nuclei count)): 87.61
Percentage Infection Relative to Appropriate DMSO Control with Avg Background Subtraction (SARS2; Exp 1 (SMW475), 1 uM, Greiner Celigo plates): 53.62% and 101.44% and 86.72%
Percentage Infection Relative to Appropriate DMSO Control with Avg Background Subtraction (SARS2; Exp 1 (SMW475), 5 uM, Greiner Celigo plates): 69.33% and 82.60% and 84.98%
Percentage Infection Relative to Appropriate DMSO Control with Avg Background Subtraction (SARS2; Exp 1 (SMW475), 10 uM, Greiner Celigo plates): 79.81% and 90.19% and 84.97%
Percentage Infection Relative to Appropriate DMSO Control with Avg Background Subtraction (SARS2; Exp 1 (SMW475), 50 uM, Greiner Celigo plates): 52.39% and 69.09% and 65.56%
Percentage Infection Relative to Appropriate DMSO Control with Avg Background Subtraction (SARS2; Exp 2 (SMW477), 1 uM, Greiner Celigo plates): 120.88% and 113.91% and 111.55%
Percentage Infection Relative to Appropriate DMSO Control with Avg Background Subtraction (SARS2; Exp 2 (SMW477), 5 uM, Greiner Celigo plates): 128.80% and 118.55% and 121.74%
Percentage Infection Relative to Appropriate DMSO Control with Avg Background Subtraction (SARS2; Exp 2 (SMW477), 10 uM, Greiner Celigo plates): 114.36% and 136.38% and 130.63%
Percentage Infection Relative to Appropriate DMSO Control with Avg Background Subtraction (SARS2; Exp 2 (SMW477), 25 uM, Greiner Celigo plates): 73.62% and 97.76% and 95.99%
Percentage Infection Relative to Appropriate DMSO Control with Avg Background Subtraction (SARS2; Exp 2 (SMW477), 50 uM, Greiner Celigo plates): 31.41% and 36.50% and 41.52%
Percentage Infection Relative to Appropriate DMSO Control with Avg Background Subtraction (SARS2; Exp 3 (SMW478), 5 uM, Greiner Celigo plates): 121.27% and 137.96% and 122.71%
Percentage Infection Relative to Appropriate DMSO Control with Avg Background Subtraction (SARS2; Exp 3 (SMW478), 10 uM, Greiner Celigo plates): 159.81% and 126.46% and 162.16%
Percentage Infection Relative to Appropriate DMSO Control with Avg Background Subtraction (SARS2; Exp 3 (SMW478), 25 uM, Greiner Celigo plates): 126.24% and 109.99% and 117.46%
Percentage Infection Relative to Appropriate DMSO Control with Avg Background Subtraction (SARS2; Exp 3 (SMW478), 50 uM, Greiner Celigo plates): 71.82% and 89.49% and 84.99%
Percentage Inhibition Average 1 μM (SARS2): 28.78%
Screening data (Relative infection to DMSO controls) Average 1 μM (SARS2): 71.22
Percentage Inhibition Average 5 μM (SARS2): −9.77%
Screening data (Relative infection to DMSO controls) Average 5 μM (SARS2): 109.77
Percentage Inhibition Average 10 μM (SARS2): −20.53%
Screening data (Relative infection to DMSO controls) Average 10 μM (SARS2): 120.53
Percentage Inhibition Average 25 μM (SARS2): 24.68%
Screening data (Relative infection to DMSO controls) Average 25 μM (SARS2): 75.32
Percentage Inhibition Average 50 μM (SARS2): 39.69%
Screening data (Relative infection to DMSO controls) Average 50 μM (SARS2): 60.31
Average (relative infection to DMSO over the 5 tested concentrations) (SARS2): 87.43
Infection Data, Average, Mean (SARS2; [1]): 71.22%
Infection Data, Average, Mean (SARS2; [2]): 109.77%
Infection Data, Average, Mean (SARS2; [3]): 120.53%
Infection Data, Average, Mean (SARS2; [4]): 75.32%
Infection Data, Average, Mean (SARS2; [5]): 60.31%
